According to patent US12617777B2, “GPR84 antagonists and uses thereof” (Liminal BioSciences Limited, priority 2021, dated 2026):

What follows are molecules tested against T1, human GPR84 receptor (Homo sapiens, UniProt Q9NQS5) (assay: Gαi biosensor BRET assay in HEK293 cells (antagonism of ZQ-16)). Settings: HEK293, single concentration 3.3 μM (designated C).
T1 construct: host or cells: HEK293, transient transfection
Assay type: cell-based
Method in brief: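 Antagonist mode: test compound 5 min at 37° C, followed by ZQ-16 agonist (200 nmol/L, 5 min, room temperature), in HEK293 cells transfected with GPR84 plus Rluc8-tagged Gαi2, GFP10-Gγ2 and Gβ1. Readout as GFP10/Rluc8 emission ratio after 5 μmol/L coelenterazine 400A, net of Rluc8-only and vehicle signal.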

T1 sequence (Q9NQS5 whole entry): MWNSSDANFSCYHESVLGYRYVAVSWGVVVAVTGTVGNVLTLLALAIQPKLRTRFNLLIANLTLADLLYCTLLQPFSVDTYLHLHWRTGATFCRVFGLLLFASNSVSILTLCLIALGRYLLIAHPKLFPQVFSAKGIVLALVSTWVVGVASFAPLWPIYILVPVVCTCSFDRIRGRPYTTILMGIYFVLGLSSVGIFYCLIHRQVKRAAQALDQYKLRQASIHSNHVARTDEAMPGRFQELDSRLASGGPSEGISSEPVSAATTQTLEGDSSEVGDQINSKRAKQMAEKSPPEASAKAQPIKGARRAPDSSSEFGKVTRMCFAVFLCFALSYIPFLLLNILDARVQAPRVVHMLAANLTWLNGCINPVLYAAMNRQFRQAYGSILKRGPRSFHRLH

Row | inhibition at 3.3 µM | Structure (SMILES)
1 | > 75% | Cc1cc(N2CC(C)(C)C2)ccc1-c1cn(C[C@H]2CCCCO2)nn1 [Compound I-253]

Same assay, conditions: HEK293, single concentration 10 μM (designated F)

Row | Structure (SMILES) | inhibition at 10 µM
2 | Cc1cc(C#CC2CC2)ccc1-c1cn(C[C@H]2CC[C@@H](C)O2)nn1 [Compound I-225] | 25 to 50%
3 | Cc1cc(C#CC2CC2)ccc1-c1cn(CC2CC(C)(C)CO2)nn1 (stereo not shown) [Compound I-226] | > 75%
4 | CC(C)(O)c1cc(C#CC2CC2)ccc1-c1cn(CC2CCCCO2)nn1 (stereo not shown) [Compound I-229] | ≤ 25%
5 | Cn1ccc2c(C#CC3CC3)ccc(-c3cn(CC4CCCCO4)nn3)c21 (stereo not shown) [Compound I-230] | ≤ 25%
6 | COC(=O)C1CCCN1CC#Cc1ccc(-c2cn(CC3CCCCO3)nn2)c(C)c1 (stereo not shown) [Compound I-233] | 50 to 75%
7 | NC(=O)c1cc(C#CC2CC2)ccc1-c1cn(CC2CCCCO2)nn1 (stereo not shown) [Compound I-234] | ≤ 25%
8 | Cc1c(-c2ccc(C#CCNc3ccccc3)cc2)nnn1CC1CCCCO1 (stereo not shown) [Compound I-235] | 25 to 50%
9 | Cc1cc(N2CCN(C(=O)c3ccccc3)CC2)ccc1-c1cn(CC2CCCCO2)nn1 (stereo not shown) [Compound I-236] | 50 to 75%
10 | C(#CC1CC1)c1csc(-c2cn(CC3CCCCO3)nn2)c1 (stereo not shown) [Compound I-242] | ≤ 25%
11 | COCC#Cc1ccc(-c2nnn(CC3CCCCO3)c2C)cc1 (stereo not shown) [Compound I-244] | 25 to 50%
12 | Cc1cc(C#CCN2CCCC2C(=O)O)ccc1-c1cn(CC2CCCCO2)nn1 (stereo not shown) [Compound I-247] | ≤ 25%
13 | Cc1cc(F)c(C#CC2CC2)cc1-c1cn(CC2CCCCO2)nn1 (stereo not shown) [Compound I-249] | 50 to 75%
14 | Cc1cc(C#CCN2CCC(F)(F)CC2)cnc1-c1cn(CC2CCCCO2)nn1 (stereo not shown) [Compound I-250] | 50 to 75%
15 | Cc1cc(C#CCN(C)CC2CC2)cnc1-c1cn(CC2CCCCO2)nn1 (stereo not shown) [Compound I-251] | > 75%
16 | Cc1cc(C#CC2CC2)cnc1-c1cn(CC2CCC(C)(C)O2)nn1 (stereo not shown) [Compound I-252] | 25 to 50%
17 | CC1(C)CN(c2ccc(-c3cn(CC4CCCCO4)nn3)c(Cl)c2)C1 (stereo not shown) [Compound I-254] | 25 to 50%
18 | CC1(C)CN(c2ccc(-c3cn(CC4CCCCO4)nn3)c(C(F)(F)F)c2)C1 (stereo not shown) [Compound I-255] | 25 to 50%
19 | COc1cc(C)c(-c2cn(CC3CCCCO3)nn2)cc1OC (stereo not shown) [Compound I-257] | ≤ 25%
20 | CCc1cc(N2CC(C)(C)C2)cnc1-c1cn(CC2CCCCO2)nn1 (stereo not shown) [Compound I-260] | 50 to 75%
21 | Cc1cc(N2CC(C)(CO)C2)ccc1-c1cn(CC2CCCCO2)nn1 (stereo not shown) [Compound I-263] | > 75%
22 | CC(=O)NC(C)(C)COc1ccc(-c2cn(CC3CCCCO3)nn2)c(C)c1 (stereo not shown) [Compound I-265] | 25 to 50%
23 | Cc1cc(C#CC2CC2)ccc1-n1cc(CC2CCOCC2)nn1 [Compound I-269] | ≤ 25%

Next, values leading:

Row | inhibition at 10 µM | Structure (SMILES)
24 | > 75% | Cc1cc(N2CCN(Cc3ccccn3)CC2)ccc1-c1cn(CC2CCCCO2)nn1 (stereo not shown) [Compound I-237]
25 | ≤ 25% | C(#CC1CC1)c1csc(-c2cn(CC3CCCCO3)nn2)n1 (stereo not shown) [Compound I-241]
26 | 25 to 50% | Cc1c(-c2ccc(C#CCO)cc2)nnn1CC1CCCCO1 (stereo not shown) [Compound I-243]
27 | ≤ 25% | Cc1cc(C#CC2CC2)ccc1-c1cn(CC2CCCCS2(=O)=O)nn1 (stereo not shown) [Compound I-248]
28 | ≤ 25% | Cc1cc(N2CCCCC2)ccc1-c1cn(CC2CCCCO2)nn1 (stereo not shown) [Compound I-256]
29 | 50 to 75% | Cc1cc(C#CC2CC2)ccc1-c1cn(CC2CCCCS2)nn1 (stereo not shown) [Compound I-258]
30 | 50 to 75% | Cc1cc(C#CC2CC2)ccc1-c1cn(Cc2ncccn2)nn1 [Compound I-262]
31 | 50 to 75% | Cc1cc(N2CC(C)C2)ccc1-c1cn(CC2CCCCO2)nn1 (stereo not shown) [Compound I-264]
32 | 25 to 50% | Cc1cc(C#CCNC(C)(C)C)ccc1-c1cn(CC2CCCCO2)nn1 (stereo not shown) [Compound I-267]
33 | ≤ 25% | CN1Cc2c(C#CC3CC3)ccc(-c3cn(CC4CCCCO4)nn3)c2C1 (stereo not shown) [Compound I-268]

Same assay, conditions: HEK293 cells, antagonism of 200 nmol/L ZQ-16

Row | IC50 | Structure (SMILES)
34 | 1000 to 3000 nM | Cc1cc(C#CC2CC2)ccc1-c1cn(CC2CC(C)(C)CO2)nn1 (stereo not shown) [Compound I-226]
35 | 1000 to 3000 nM | Cc1cc(N2CCN(C(=O)c3ccccc3)CC2)ccc1-c1cn(CC2CCCCO2)nn1 (stereo not shown) [Compound I-236]
36 | 1000 to 3000 nM | Cc1cc(N2CCN(Cc3ccccn3)CC2)ccc1-c1cn(CC2CCCCO2)nn1 (stereo not shown) [Compound I-237]
37 | ≤ 300 nM | Cc1cc(N2CC(C)(C)C2)ccc1-c1cn(C[C@H]2CCCCO2)nn1 [Compound I-253]
